The text below walks through data of patent US7772383B2, “Chemical PCR: Compositions for enhancing polynucleotide amplification reactions” (The Trustees of Princeton University, priority 2002, dated 2010).

Holding throughout (format): biochemical
For series [1], the system named is human myeloid leukocyte c-jun cDNA. The experiment in a line: PCR amplification of c-jun with lower denaturation/extension temperatures. To be noted: for Potency: annealing 50° C. The procedure: (§1) Amplification reactions were carried out under the following general conditions. Those skilled in the art will appreciate, however, that to the extent that the conditions (set forth in this application) required for specific experiments described in this example were inconsistent with the following general conditions, limited exceptions to the following general conditions were made The general conditions were as follows: 10 Mm Tris-HCl (Ph 8.8), 50 Mm KCl, 1.5 Mm MgCl2, 0.01% (w/v) gelatin, 0.2 Um primers, 0.06 ng/ul template, 0.2 Mm each Dntp, 0.04 U/ul Taq polymerase. The templates used were bovine brain N-WASP cDNA (1518 bp), a 996 by segment of human myeloid leukocyte c-jun cDNA, a 511 by segment of human prostate-specific membrane antigen (PSM) cDNA, and bovine brain glycolipid transfer protein (GTP) cDNA (660 bp). cDNA synthesis was carried out using the FIRST-STRAND® RT-PCR kit from Stratagene on the respective mRNAs purchased from Clontech. All amplification reactions for gene were carried out using a single master batch of cDNA. Taq polymerase and dNTPs were obtained from Stratagene. Primers were obtained from Genosys. Primer melting temperatures (Tms) were calculated using the Genosys oligo calculator program. The sequences of the primers were as follows.
(§2) Polymerase chain reactions for the N-WASP gene were conducted on a ROBOCYCLER® Gradient 40 thermal cycler from Stratagene using 100 ul solutions in 600 ul thin-walled tubes. For expediency, amplification of c-jun, PSM and GTP was carried out in a ROBOCYCLER® Gradient 96 thermal cycler from Stratagene using 50 ul solutions in 200 ul thin-walled tubes. Prior to Taq polymerase addition, a hotstart protocol was carried out that consisted of an initial cycle of 95° C. for 5 minutes (11) to ensure complete first-strand separation, followed by a cycle of 54° C. for 5 minutes. Amplifications were run for 30 cycles. Denaturation was done for 1 minute at the minimum temperatures that yielded discernable amplification: 92° C. for N-WASP and 95° C. for c-jun, PSM and GTP. Extension was done at 72° C. for periods depending on target length: 2 minutes for N-WASP, 1.5 minutes for c-jun and GTP, and 1 minute for PSM. Annealings were carried out either at fixed concentrations of additives using temperature gradients of 38-56° C. for N-WASP and 44-58° C. for the other targets, or at varying concentrations of additives using fixed temperatures of 41° C. for N-WASP, 50° C. for c-jun and PSM, and 54° C. for GTP.
Amplification products were analyzed by agarose gel electrophoresis on 0.8% agarose gels in which 20 ul reaction products were loaded with 4 ul loading buffer. […] Densitometric quantitation of amplification products was carried out using IMAGE SCANNER® and IMAGE MASTER® software from Amersham Pharmacia. […]

The target of the next series is T1, Taq polymerase (Thermus aquaticus, UniProt P19821).
T1 construct: purchased Stratagene
Kind of series: Predicted thermostability (half-life) of Taq polymerase in the presence of diols. The procedure:
It is possible that this discrepancy was due to the greatly diminished thermostability of the polymerase at the cutoff concentrations. Based on thermodynamic data, Taq polymerase in the absence of template is predicted to have a half-life of about 8 seconds at 95° C. in the presence of 0.9M 1,2-butanediol and 10 seconds in the presence of 0.6M 1,5-pentanediol. These values will be increased in the presence of template, but will still be very low, especially during the initial cycles when template concentration is limited.

The test system of series [2] is bovine brain glycolipid transfer protein (GTP) cDNA (660 bp). Kind of series: Pilot low temperature PCR of GTP with 1,5-pentanediol. To be noted: normalized: 1,5-pentanediol (95/72° C.) = 1. The procedure: as §1, §2
Amplification products were analyzed by agarose gel electrophoresis on 0.8% agarose gels in which 20 ul reaction products were loaded with 4 ul loading buffer. Gels were stained with ethidium bromide, visualized on a UV transilluminator (Fisher), and documented by photography. Densitometric quantitation of amplification products was carried out using IMAGE SCANNER® and IMAGE MASTER® software from Amersham Pharmacia. Background correction was done using the software's rolling disc method. […] GTP was used as the target because it has the lowest GC content of the three templates used. PCR reactions were carried out in the presence of 1.0 and 1.5M 1,5-pentanediol under the conditions of 85° C. denaturing and 53° C. extension, using a 50° C. annealing temperature. In addition, 1.5M and 2.0M 1,5-pentandediol were tested using an 80° C. denaturing temperature, with identical annealing and extension temperature. Finally, 2.0, 2.5, and 3.0M 1,5-pentanediol were tested in GTP amplification employing a 75° C. denaturation temperature.

T1 sequence (P19821 whole entry): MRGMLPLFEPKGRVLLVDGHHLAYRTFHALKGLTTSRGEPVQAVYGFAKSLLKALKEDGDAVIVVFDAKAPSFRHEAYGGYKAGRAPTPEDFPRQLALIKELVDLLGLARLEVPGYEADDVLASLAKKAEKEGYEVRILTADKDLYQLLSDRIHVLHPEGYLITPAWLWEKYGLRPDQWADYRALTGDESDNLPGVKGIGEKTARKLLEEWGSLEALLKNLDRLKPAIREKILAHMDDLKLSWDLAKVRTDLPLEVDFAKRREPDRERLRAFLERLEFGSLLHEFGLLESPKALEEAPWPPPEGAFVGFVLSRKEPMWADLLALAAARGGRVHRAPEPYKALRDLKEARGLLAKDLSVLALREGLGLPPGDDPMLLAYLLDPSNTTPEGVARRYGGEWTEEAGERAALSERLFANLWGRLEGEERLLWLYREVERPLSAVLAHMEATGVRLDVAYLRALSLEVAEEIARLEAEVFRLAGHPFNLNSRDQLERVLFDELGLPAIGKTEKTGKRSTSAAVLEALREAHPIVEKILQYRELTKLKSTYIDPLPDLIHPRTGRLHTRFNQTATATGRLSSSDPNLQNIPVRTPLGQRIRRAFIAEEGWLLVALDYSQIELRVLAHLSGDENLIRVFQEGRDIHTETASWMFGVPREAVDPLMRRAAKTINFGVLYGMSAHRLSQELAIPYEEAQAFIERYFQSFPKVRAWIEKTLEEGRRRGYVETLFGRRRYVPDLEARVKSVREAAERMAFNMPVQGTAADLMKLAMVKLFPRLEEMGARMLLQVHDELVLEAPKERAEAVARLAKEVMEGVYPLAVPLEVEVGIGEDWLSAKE

As to `CCC(O)CO` (stereo not shown) [1,2-Butanediol], the Potency in series [1] (92/62° C. denaturation/extension, normalized: 1,5-pentanediol (95/72° C.) = 1) is 0.91; in series [1] (92/62° C. denaturation/extension, normalized: 1,5-pentanediol (95/72° C.) = 1, listed as 1,2-butanediol), “High product yield”; in series [1] (92/72° C. denaturation/extension, normalized: 1,5-pentanediol (95/72° C.) = 1) it was 0.00. In series [1] (92/62° C., concentration interval over which target band minus control is at least 50% of maximum volume), the Effective is given as 0.72-1.02.

As to `OCCCCCO` [1,5-Pentanediol], the “half-life of Taq polymerase” value on Taq polymerase was around 10 s. In addition, the “GTP Potency” value in series [2] (75/50/53° C., 2.0 M 1,5-pentanediol) was 0.00; in series [2] (75/50/53° C., 2.0 M 1,5-pentanediol, listed as 1,5-pentanediol) it was “unsuccessful”; in series [2] (75/50/53° C., 2.5 M 1,5-pentanediol), 0.00; in series [2] (75/50/53° C., 2.5 M 1,5-pentanediol, listed as 1,5-pentanediol), “unsuccessful”; in series [2] (75/50/53° C., 3.0 M 1,5-pentanediol), 0.53; in series [2] (75/50/53° C., 3.0 M 1,5-pentanediol, listed as 1,5-pentanediol), “succeeded in producing amplification”. Further, the “GTP Potency” value is recorded as 0.00 in series [2] (80/50/53° C., 1.5 M 1,5-pentanediol); “failed to produce any discernable amplification” in series [2] (80/50/53° C., 1.5 M 1,5-pentanediol, listed as 1,5-pentandediol); 2.69 in series [2] (80/50/53° C., 2.0 M 1,5-pentanediol); “high yield” in series [2] (80/50/53° C., 2.0 M 1,5-pentanediol, listed as 1,5-pentandediol); 2.78 in series [2] (85/50/53° C. denaturation/annealing/extension, 1.0 M 1,5-pentanediol); “strong amplification” in series [2] (85/50/53° C. denaturation/annealing/extension, 1.0 M 1,5-pentanediol, listed as 1,5-pentanediol). The “GTP Potency” value in series [2] (85/50/53° C., 1.5 M 1,5-pentanediol) is on record as 2.64; in series [2] (85/50/53° C., 1.5 M 1,5-pentanediol, listed as 1,5-pentanediol), “strong amplification”.
